T/C data for 25 compounds are collected here from PubChem BioAssay AID330 (DTP/NCI, 2004).

Where “and” joins values, the source holds several entries; their conditions need not be identical. Equal entries are not always repeated. Inconclusive results and toxic doses are left out.

The test relates to P388 leukemia ip, CD2F1 mice, survival T/C. Nature of the test: NCI In Vivo Anticancer Drug Screen. Data for tumor model P388 Leukemia (intraperitoneal) in CD2F1 (CDF1) mice. Particulars: endpoint: median survival time, higher = longer survival. In outline: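 Mice carrying the transplanted tumor received test compound or vehicle. Survival was recorded in each group, and the value is the treated-group measurement divided by that of the vehicle-treated control group.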

[1] abbreviates: dose: 60.0 mg/kg/injection, schedule: Q01DX005 (ip), vehicle: Klucel (hydroxypropylcellulose) (HPC).
Where [2] appears, read: dose: 12.5 mg/kg/injection, schedule: Q01DX009 (ip), vehicle: saline.
The mark [3] stands for this setting: dose: 25.0 mg/kg/injection, schedule: Q01DX009 (ip), vehicle: saline.
Where [4] appears, read: dose: 50.0 mg/kg/injection, schedule: Q01DX009 (ip), vehicle: saline.
The mark [5] stands for this setting: dose: 50.0 mg/kg/injection, schedule: Q01DX009 (ip), vehicle: water.
Setting [6] is: dose: 100.0 mg/kg/injection, schedule: Q01DX009 (ip), vehicle: saline.
Setting [7] is: dose: 200.0 mg/kg/injection, schedule: Q01DX009 (ip), vehicle: saline.
Setting [8] is: dose: 12.5 mg/kg/injection, schedule: Q01DX009 (ip), vehicle: saline with Tween-80.
The mark [9] stands for this setting: dose: 25.0 mg/kg/injection, schedule: Q01DX009 (ip), vehicle: saline with Tween-80.
The mark [10] stands for this setting: dose: 50.0 mg/kg/injection, schedule: Q01DX009 (ip), vehicle: saline with Tween-80.
Where [11] appears, read: dose: 100.0 mg/kg/injection, schedule: Q01DX009 (ip), vehicle: saline with Tween-80.
Setting [12] is: dose: 200.0 mg/kg/injection, schedule: Q01DX009 (ip), vehicle: saline with Tween-80.
[13] abbreviates: dose: 400.0 mg/kg/injection, schedule: Q01DX009 (ip), vehicle: saline with Tween-80.
[14] abbreviates: dose: 50.0 mg/kg/injection, schedule: Q01DX005 (ip), vehicle: saline with Tween-80.
[15] abbreviates: dose: 100.0 mg/kg/injection, schedule: Q01DX005 (ip), vehicle: saline with Tween-80.
[16] abbreviates: dose: 200.0 mg/kg/injection, schedule: Q01DX005 (ip), vehicle: saline with Tween-80.
The mark [17] stands for this setting: dose: 12.5 mg/kg/injection, schedule: Q01DX005 (ip), vehicle: saline with Tween-80.
Where [18] appears, read: dose: 400.0 mg/kg/injection, schedule: Q01DX009 (ip), vehicle: saline.
[19] abbreviates: dose: 100.0 mg/kg/injection, schedule: Q01DX001 (ip), vehicle: Klucel (hydroxypropylcellulose) (HPC).
[20] abbreviates: dose: 200.0 mg/kg/injection, schedule: Q01DX001 (ip), vehicle: Klucel (hydroxypropylcellulose) (HPC).

On to `CCCC(=O)Nc1cc([N+](=O)[O-])c([N+](=O)[O-])cc1OC`, for which the T/C by setting is: under setting [1], 94 % of control; (dose: 120.0 mg/kg/injection, schedule: Q01DX005 (ip), vehicle: Klucel (hydroxypropylcellulose) (HPC)) 91 % of control; (dose: 240.0 mg/kg/injection, schedule: Q01DX005 (ip), vehicle: Klucel (hydroxypropylcellulose) (HPC)) 94 % of control.

As to `COc1cccc(C[n+]2ccccc2C#N)c1`, the T/C by setting is: under setting [2], 100 % of control; under setting [3], 106 % of control; under setting [4], 100 % of control and 96 % of control.

On to `Cc1cccc(-[n+]2noc(N)n2)c1`, for which the T/C is 100 % of control (dose: 3.13 mg/kg/injection, schedule: Q01DX009 (ip), vehicle: water); 100 % of control (dose: 6.25 mg/kg/injection, schedule: Q01DX009 (ip), vehicle: water); 114 % of control (dose: 12.5 mg/kg/injection, schedule: Q01DX009 (ip), vehicle: water); 152 % of control (dose: 25.0 mg/kg/injection, schedule: Q01DX009 (ip), vehicle: water); 167 % of control under setting [5].

With `Nc1cc(=O)nc2cn[nH]n12`, the T/C is, setting by setting: under setting [4], 92 % of control; under setting [6], 101 % of control; under setting [7], 90 % of control.

For the compound `COc1ccc(C2C(C(=O)NCc3ccccc3)=C(C)NC(C)=C2C(=O)NCc2ccccc2)cc1OC`, the T/C is, setting by setting: (dose: 15.0 mg/kg/injection, schedule: Q01DX005 (ip), vehicle: Klucel (hydroxypropylcellulose) (HPC)) 100 % of control; (dose: 30.0 mg/kg/injection, schedule: Q01DX005 (ip), vehicle: Klucel (hydroxypropylcellulose) (HPC)) 100 % of control; under setting [1], 100 % of control and 88 % of control.

For `CCOC(=O)C(C)(NC(=O)CN)C1CC1` (stereo unspecified), the T/C is 90 % of control under setting [4], 94 % of control under setting [6] and 97 % of control under setting [7].

On to `O=C1CC(c2ccc(Cl)cc2Cl)Oc2ccc(Cl)cc21` (stereo unspecified), for which the T/C (dose: 6.25 mg/kg/injection, schedule: Q01DX009 (ip), vehicle: saline with Tween-80) was 95 % of control; the T/C under setting [8] is 96 % of control; the T/C under setting [9] is 95 % of control; the T/C under setting [10] was 89 % of control; the T/C under setting [11] is 87 % of control and 90 % of control; the T/C under setting [12] is 90 % of control. The T/C under setting [13] was 96 % of control.

For `Cc1coc2c1C1OC(=O)C3(C/C=C\C(C)C2)OC13` (stereo unspecified), the T/C runs as follows: (dose: 5625.0 micrograms/kg/injection, schedule: Q01DX005 (ip), vehicle: Klucel (hydroxypropylcellulose) (HPC)) 100 % of control; (dose: 11250.0 micrograms/kg/injection, schedule: Q01DX005 (ip), vehicle: Klucel (hydroxypropylcellulose) (HPC)) 100 % of control; (dose: 22500.0 micrograms/kg/injection, schedule: Q01DX005 (ip), vehicle: Klucel (hydroxypropylcellulose) (HPC)) 100 % of control.

With `C[n+]1cccc2c1C(=O)C(=O)c1ncccc1-2`, the T/C reads like this: under setting [8], 100 % of control; under setting [9], 108 % of control; under setting [10], 109 % of control.

Consider `O=c1oc2c(ccc3nc(-c4ccccc4)sc32)c(N2CCOCC2)c1Cl`, for which the T/C is 92 % of control (dose: 50.0 mg/kg/injection, schedule: Q01DX005 (ip), vehicle: Klucel (hydroxypropylcellulose) (HPC)); 91 % of control (dose: 100.0 mg/kg/injection, schedule: Q01DX005 (ip), vehicle: Klucel (hydroxypropylcellulose) (HPC)); 89 % of control (dose: 200.0 mg/kg/injection, schedule: Q01DX005 (ip), vehicle: Klucel (hydroxypropylcellulose) (HPC)).

For `CCOC(=O)c1c[nH]c2ccc(N(CCO)CCO)cc12`, the T/C runs as follows: under setting [14], 102 % of control; under setting [15], 105 % of control; under setting [16], 108 % of control.

As for `CCOc1ccccc1NC(=O)CC(=O)N1N=C(C)C(N=Nc2ccccc2C(=O)O)C1=O` (stereo unspecified), the T/C is 108 % of control under setting [14], 104 % of control under setting [15] and 92 % of control under setting [16].

Consider `C(CCc1nn[nH]n1)CCC1CCCCC1`, for which the T/C runs as follows: under setting [14], 96 % of control; under setting [15], 107 % of control.

As for `CC1(C)c2ccccc2-c2nc3ccccc3cc2C1(Br)Br`, the T/C is 105 % of control under setting [14], 110 % of control under setting [15] and 120 % of control under setting [16].

As to `O=C(NCCCCCCCCCCNC(=O)C12CC3CC(CC(C3)C1)C2)C12CC3CC(CC(C3)C1)C2`, the T/C is 98 % of control under setting [17]; 96 % of control (dose: 25.0 mg/kg/injection, schedule: Q01DX005 (ip), vehicle: saline with Tween-80); 86 % of control and 91 % of control under setting [14].

Regarding `CC(=O)Nc1cccc(N(CCOS(C)(=O)=O)CCOS(C)(=O)=O)c1`, the T/C (dose: 20.0 mg/kg/injection, schedule: Q04DX003 (ip), vehicle: saline with Tween-80) is 172 % of control.

Regarding `CC(=O)Oc1c(C)[nH]ccc1=O`, the T/C under setting [3] is 103 % of control and 104 % of control; the T/C under setting [4] is 107 % of control and 112 % of control and 116 % of control; the T/C under setting [6] was 116 % of control; the T/C under setting [7] is 154 % of control; the T/C under setting [18] was 152 % of control and 161 % of control and 179 % of control; the T/C (dose: 800.0 mg/kg/injection, schedule: Q01DX009 (ip), vehicle: saline) is 180 % of control.

As for `Nc1[nH]c(=S)[nH]c(=S)c1N`, the T/C runs as follows: (dose: 100.0 mg/kg/injection, schedule: Q04DX002 (ip), vehicle: saline with Tween-80) 102 % of control; (dose: 200.0 mg/kg/injection, schedule: Q04DX002 (ip), vehicle: saline with Tween-80) 98 % of control; (dose: 400.0 mg/kg/injection, schedule: Q04DX002 (ip), vehicle: saline with Tween-80) 94 % of control.

`CC(=O)OCc1c(-c2ccccc2)nc2sccn12`: the T/C runs as follows: under setting [19], 98 % of control; under setting [20], 100 % of control.

Turning to `O=C(O)[C@@H]1[C@H](C(=O)O)[C@H](C(=O)O)C[C@@H]1C(=O)O`, the T/C under setting [6] is 108 % of control and the T/C under setting [7] is 105 % of control.

Take `Nc1nc2c(ncn2C2OC(CO)C(O)C2O)c(=O)[nH]1.Nc1nc2c(ncn2C2OC(CO)C(O)C2O)c(=O)[nH]1.[NH2-].[NH2-].[Pt+2]` (stereo unspecified): the T/C (dose: 6.25 mg/kg/injection, schedule: Q01DX009 (ip), vehicle: saline) was 101 % of control; the T/C under setting [2] is 100 % of control and 108 % of control; the T/C under setting [3] was 100 % of control and 107 % of control; the T/C under setting [4] was 100 % of control and 113 % of control and 107 % of control; the T/C under setting [5] is 175 % of control; the T/C (dose: 50.0 mg/kg/injection, schedule: Q04DX003 (ip), vehicle: saline) is 100 % of control. In addition, the T/C was 112 % of control and 121 % of control and 116 % of control under setting [6]; 174 % of control (dose: 100.0 mg/kg/injection, schedule: Q01DX009 (ip), vehicle: water); 120 % of control (dose: 100.0 mg/kg/injection, schedule: Q04DX003 (ip), vehicle: saline); 163 % of control and 177 % of control under setting [7]; 110 % of control (dose: 200.0 mg/kg/injection, schedule: Q04DX003 (ip), vehicle: saline); 224 % of control and 227 % of control under setting [18].

Turning to `CN(C)C1CCC(NC2=CC(=O)C(NC3CCC(N(C)C)CC3)=CC2=O)CC1` (stereo unspecified), the T/C reads like this: (dose: 1.56 mg/kg/injection, schedule: Q01DX005 (ip), vehicle: distilled water + alcohol) 95 % of control; (dose: 3.12 mg/kg/injection, schedule: Q01DX005 (ip), vehicle: distilled water + alcohol) 99 % of control; (dose: 6.25 mg/kg/injection, schedule: Q01DX005 (ip), vehicle: distilled water + alcohol) 100 % of control and 96 % of control.

On to `CN(C)c1ccc(C(=O)c2ccc(N(C)C)cc2)cc1`, for which the T/C by setting is: under setting [11], 100 % of control; under setting [12], 112 % of control; under setting [13], 116 % of control.

For `C/C(=N\NC(=S)N1CC2CCC(CC2)C1)c1nccs1`, the T/C was 124 % of control under setting [17] and 154 % of control under setting [14].

With `O=C(NCCSCCSCCSCCNC(=O)Oc1ccccc1)Oc1ccccc1`, the T/C by setting is: under setting [19], 92 % of control; under setting [20], 91 % of control.
